Experimental data taken from patent publication US20250281497A1, “FUSED AMINO PYRIMIDINE COMPOUNDS FOR TREATMENT OF SEIZURE DISORDERS” (Ovid Therapeutics Inc., priority 2024, published 2025).

Molecular target: T1, KCC3 (Homo sapiens, UniProt Q9UHW9)
T1 construct: expressed in transfected cells; host or cells: HEK-293
T1 sequence (Q9UHW9 1-1150): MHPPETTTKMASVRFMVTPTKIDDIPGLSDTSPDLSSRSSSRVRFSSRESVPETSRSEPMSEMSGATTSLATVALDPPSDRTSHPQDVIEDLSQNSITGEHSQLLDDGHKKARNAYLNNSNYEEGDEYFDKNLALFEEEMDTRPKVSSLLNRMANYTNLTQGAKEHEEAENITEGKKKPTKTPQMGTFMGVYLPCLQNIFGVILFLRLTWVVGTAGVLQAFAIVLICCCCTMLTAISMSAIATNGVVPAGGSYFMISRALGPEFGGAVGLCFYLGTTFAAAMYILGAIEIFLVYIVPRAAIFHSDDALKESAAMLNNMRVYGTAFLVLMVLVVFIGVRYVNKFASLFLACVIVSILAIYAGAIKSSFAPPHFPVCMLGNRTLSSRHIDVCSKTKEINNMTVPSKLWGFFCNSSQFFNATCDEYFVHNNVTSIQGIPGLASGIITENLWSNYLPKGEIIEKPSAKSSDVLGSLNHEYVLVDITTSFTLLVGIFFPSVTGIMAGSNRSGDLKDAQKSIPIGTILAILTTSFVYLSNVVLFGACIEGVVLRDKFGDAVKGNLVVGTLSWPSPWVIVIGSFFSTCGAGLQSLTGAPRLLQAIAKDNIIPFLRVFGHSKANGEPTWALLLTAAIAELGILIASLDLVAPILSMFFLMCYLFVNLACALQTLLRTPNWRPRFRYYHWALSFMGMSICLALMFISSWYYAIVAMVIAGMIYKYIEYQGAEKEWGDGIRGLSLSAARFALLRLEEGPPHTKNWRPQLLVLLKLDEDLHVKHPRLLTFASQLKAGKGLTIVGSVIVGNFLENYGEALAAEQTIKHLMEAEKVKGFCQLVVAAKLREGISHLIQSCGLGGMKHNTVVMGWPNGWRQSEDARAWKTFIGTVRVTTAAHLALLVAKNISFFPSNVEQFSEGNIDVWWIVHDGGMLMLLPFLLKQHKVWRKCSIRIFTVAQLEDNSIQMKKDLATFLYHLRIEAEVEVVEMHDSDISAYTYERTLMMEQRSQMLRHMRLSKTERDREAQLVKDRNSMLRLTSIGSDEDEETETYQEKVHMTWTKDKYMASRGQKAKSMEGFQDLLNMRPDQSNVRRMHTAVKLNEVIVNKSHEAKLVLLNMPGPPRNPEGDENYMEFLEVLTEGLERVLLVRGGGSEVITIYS
Experiment: Tl+ assay, HEK-293 cells expressing KCC3
Format: cell-based
Details: read-out: concentration at which effects on KCC3 were seen (EC50 chart FIG. 1G)
Method: FLIPR TI Flux assay. HEK-293 cells were washed with HBSS, and then incubated with loading buffer containing TI sensitive fluorescent dye (https://www.moleculardevices.com), 20 μM bumetanide 20 μM ouabain and 2.5 mM probenecid for 1 h at room temperature (RT) under control conditions or with drugs in the dark using a FlexStation 3 microplate reader (Molecular Devices) and imaged […] for 30 min. Stimulus buffer was added containing 5 mM K^+/0.5 mM Tl^+ and cells were imaged every 1.5 over a 190 second time course The initial rate Tl^+ uptake (Relative Fluorescence Units (RFU) per second) was determined following addition of the stimulus buffer as outlined previously (Conway et at, 2017, supra) (Lee et at, 2022, supra).
Several studies have shown that the activity and plasma membrane accumulation of KCC2 is potentiated via phosphorylation of S940, a process mediated by the activity of protein kinase C and protein phosphatase 1 (Lee et al., 2011, supra; Lee et al., J Biol Chem 282, 29777-29784 (2007); Moore et al., Proc. Natl. Acad. Sci. U.S.A. 115, 10166-10171 (2018); Moore et al., Trends Neurosci. 40, 555-571 (2017); Silayeva et al., Proc. Natl. Acad. Sci. U.S.A. 112, 3523-3528 (2015)). […] Compared to KCC2, effects on KCC3, KCC4, and NKCC1 were only seen at concentrations more than 35-fold that of KCC2 (>100 μM) (FIG. 1G).

C[C@@H]1CN(c2nc3c(c(Nc4ccc(C5CCCCC5)cc4)n2)COC3)CCO1 [Compound A, (R)—N-(4-cyclohexylphenyl)-2-(2-methylmorpholino)-5,7-dihydrofuro[3,4-d]pyrimidin-4-amine]
EC50: > 100 µM
